US9464064B2, “HCV helicase inhibitors and methods of use thereof” (University of Kansas, priority 2011, dated 2016)

Biological target: T1, HCV NS3 helicase NS3h_1b(con1) (Hepatitis C virus genotype 1b, UniProt Q9WMX2)
T1 construct: truncated C-terminally His-tagged NS3 proteins lacking the N-terminal protease, called NS3h; His-tag (C); made in house
Test: MBHA screen of NCI mechanistic set library at 20 μM (percent inhibition, compound interference)
Assay type: biochemical
Details: compounds at 20 μM; for Inh. (%) (Inhibition): calculated from Equation 1
Summary of the method: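 Molecular beacon-based DNA unwinding assay; compounds screened at 20 μM in triplicate, with DMSO-only negative and 500 nM dT20 positive controls. Fluorescence (ex 643/em 670 nm) was read before and 30 min after adding ATP to 1 mM. Percent inhibition came from the change relative to DMSO controls; interference from pre-ATP fluorescence versus DMSO controls.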

[1] = MBHA with DNA substrate, assay interference calculated with Equation 2
[2] = assay interference calculated with Equation 2 (fluorescence vs DMSO-only controls before ATP)

T1 sequence (Q9WMX2 1192-1657): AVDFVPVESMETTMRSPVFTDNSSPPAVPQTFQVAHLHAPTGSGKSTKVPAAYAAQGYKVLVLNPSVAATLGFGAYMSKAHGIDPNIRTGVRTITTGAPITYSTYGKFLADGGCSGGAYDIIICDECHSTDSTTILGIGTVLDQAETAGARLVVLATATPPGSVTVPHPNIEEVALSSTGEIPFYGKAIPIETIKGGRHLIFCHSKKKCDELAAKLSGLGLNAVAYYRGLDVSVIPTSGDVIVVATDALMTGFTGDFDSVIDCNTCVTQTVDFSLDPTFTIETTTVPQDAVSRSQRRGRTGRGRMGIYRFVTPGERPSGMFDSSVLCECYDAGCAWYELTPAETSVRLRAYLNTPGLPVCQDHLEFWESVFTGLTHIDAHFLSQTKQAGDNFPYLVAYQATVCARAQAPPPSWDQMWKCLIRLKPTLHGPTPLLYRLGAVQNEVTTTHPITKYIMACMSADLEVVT

CCc1cccc(C(C)C)c1NC(=O)/C(=N\NC(N)=O)C(C(=O)OC)c1cnc2ccccc2n1 (stereo not shown) [Compound 642033]
Int.* (Ratio) (Interference) [1]: 0.99 Ratio
Inh. (%) (Inhibition) (MBHA with DNA substrate): 1.4%

COC(=O)C(=O)C(C(=O)C(=O)Nc1cc(C)ccc1C)c1nc2ccc(C(=O)c3ccccc3)cc2[nH]c1=O (stereo not shown) [Compound 642040]
Inh. (%) (Inhibition) (MBHA with a DNA substrate): −3.2%
Int.* (Ratio) (Interference) [2]: 0.90 Ratio

Cc1nc(C(N)=S)sc1C(=O)CC(=O)C(=O)Nc1c(C(C)C)cccc1C(C)C [Compound 642048]
Int.* (Ratio) (Interference) [1]: 0.99 Ratio
Inh. (%) (Inhibition) (MBHA with DNA substrate): −11.3%

O=C(c1nc2ccc(Cl)cc2[nH]c1=O)C(O)c1ccc2c(c1)OCO2 (stereo not shown) [Compound 642649]
Int.* (Ratio) (Interference) [1]: 1.05 Ratio
Inh. (%) (Inhibition) (MBHA with DNA substrate): −11.2%

COc1ccc(/C=C\c2cc(OC)c(OC)c(OC)c2)cc1OP(=O)(O)O.N [Compound 643001]
Inh. (%) (Inhibition) (MBHA with a DNA substrate): −19.4%
Int.* (Ratio) (Interference) [2]: 0.96 Ratio

N#CC(C#N)=Cc1ccc(Oc2ccccc2)cc1 [Compound 643028]
Int.* (Ratio) (Interference) [1]: 0.96 Ratio
Inh. (%) (Inhibition) (MBHA with DNA substrate): −13.0%

N#CC(C#N)=Cc1cccc(Oc2ccccc2)c1 [Compound 643031]
Int.* (Ratio) (Interference) [1]: 1.08 Ratio
Inh. (%) (Inhibition) (MBHA with DNA substrate): −0.1%

O=C1c2ccccc2C(=O)C1C(c1ccc([N+](=O)[O-])cc1)C1C(=O)c2ccccc2C1=O [Compound 643148]
Inh. (%) (Inhibition) (MBHA with a DNA substrate): −20.3%
Int.* (Ratio) (Interference) [2]: 0.98 Ratio

CN(C)c1ccc(/C=C2\CCc3ccccc3C2=O)cc1Br [Compound 643162]
Int.* (Ratio) (Interference) [1]: 1.02 Ratio
Inh. (%) (Inhibition) (MBHA with DNA substrate): −2.2%

CN(C)c1ccc(/C=C2\Cc3ccccc3C2=O)cc1Br [Compound 643163]
Int.* (Ratio) (Interference) [1]: 1.09 Ratio
Inh. (%) (Inhibition) (MBHA with DNA substrate): −12.3%

CN(C)c1ccc(/C=C/C(=O)c2ccccc2)cc1Br [Compound 643164]
Int.* (Ratio) (Interference) [1]: 0.86 Ratio
Inh. (%) (Inhibition) (MBHA with DNA substrate): 14.9%

COc1ccc(/C=C2\Cc3ccccc3C2=O)cc1OC [Compound 643174]
Int.* (Ratio) (Interference) [1]: 1.07 Ratio
Inh. (%) (Inhibition) (MBHA with DNA substrate): −9.6%

COc1ccc(/C=C2\CCc3ccccc3C2=O)cc1OC [Compound 643175]
Int.* (Ratio) (Interference) [1]: 0.93 Ratio
Inh. (%) (Inhibition) (MBHA with DNA substrate): −17.5%

N#C/C(=C\c1ccc2ccccc2c1)C(=O)c1ccccc1 [Compound 643186]
Inh. (%) (Inhibition) (MBHA with a DNA substrate): −21.0%
Int.* (Ratio) (Interference) [2]: 1.04 Ratio

CN(C)c1ccc(/C=C/C(=O)[O-])cc1.CN(C)c1ccc(/C=C/C(=O)[O-])cc1.[Cu+2] [Compound 643351]
Inh. (%) (Inhibition) (MBHA with a DNA substrate): −20.4%
Int.* (Ratio) (Interference) [2]: 0.89 Ratio

CCOC(=O)/C(=C/c1ccc(N(C)C)cc1)N(CC)CC [Compound 643774]
Int.* (Ratio) (Interference) [1]: 0.90 Ratio
Inh. (%) (Inhibition) (MBHA with DNA substrate): 14.6%

COc1ccc(/C=C/c2cc(OC)c(OC)c(OC)c2)cc1OP(=O)(O)O [Compound 643812]
Inh. (%) (Inhibition) (MBHA with a DNA substrate): −5.7%
Int.* (Ratio) (Interference) [2]: 0.91 Ratio

CCCCCCCCCCCCCCCCCCN(C)C(COC)COP(=O)([O-])OCC[N+](C)(C)C (stereo not shown) [Compound 643826]
Inh. (%) (Inhibition) (MBHA with a DNA substrate): −3.8%
Int.* (Ratio) (Interference) [2]: 0.89 Ratio

CCCC/C=C/C=C/C=C/CCCCCCCC(=O)OCC(COC(=O)CCCCCCC/C=C/C1C=CC(CCCC)C(C(=O)O)C1C(=O)O)OC(=O)CCCCCCC/C=C/C=C/C=C/CCCC.OCCNCO (stereo not shown) [Compound 643834]
Int.* (Ratio) (Interference) [1]: 0.88 Ratio
Inh. (%) (Inhibition) (MBHA with DNA substrate): −1.3%

CCOC(=O)C1=C(C)NC(=S)NC1c1ccccc1 (stereo not shown) [Compound 643910]
Inh. (%) (Inhibition) (MBHA with a DNA substrate): −21.3%
Int.* (Ratio) (Interference) [2]: 1.06 Ratio
